Measurements from PubChem BioAssay (NCI).
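The compound was tested at five concentrations on cells cultured in 96-well plates, with a 48-hour exposure period. The concentration for full growth arrest is given as TGI.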

Assays:
Experiment in all cases: NCI anticancer screen, dose series, 48 h
UACC-257 melanoma = tested on: UACC-257 melanoma
MDA-N = tested on: MDA-N
OVCAR-3 ovarian = tested on: OVCAR-3 ovarian
HCT-15 colon = tested on: HCT-15 colon
OVCAR-8 ovarian = tested on: OVCAR-8 ovarian
SW-620 colon = tested on: SW-620 colon
HCT-116 colon = tested on: HCT-116 colon
MDA-MB-231 breast = tested on: MDA-MB-231 breast
DU-145 prostate = tested on: DU-145 prostate
UACC-62 melanoma = tested on: UACC-62 melanoma
COLO 205 colon = tested on: COLO 205 colon
NCI/ADR-RES ovarian = tested on: NCI/ADR-RES ovarian
A498 renal = tested on: A498 renal
CCRF-CEM leukemia = tested on: CCRF-CEM leukemia

| SMILES | TGI (UACC-257 melanoma) [µM] | TGI (MDA-N) [µM] | TGI (OVCAR-3 ovarian) [µM] | TGI (HCT-15 colon) [µM] | TGI (OVCAR-8 ovarian) [µM] | TGI (SW-620 colon) [µM] | TGI (HCT-116 colon) [µM] | TGI (MDA-MB-231 breast) [µM] | TGI (DU-145 prostate) [µM] | TGI (UACC-62 melanoma) [µM] | TGI (COLO 205 colon) [µM] | TGI (NCI/ADR-RES ovarian) [µM] | TGI (A498 renal) [µM] | TGI (CCRF-CEM leukemia) [µM] |
| --- | --- | --- | --- | --- | --- | --- | --- | --- | --- | --- | --- | --- | --- | --- |
| C=CCSC1=N/C(=C\c2cccs2)C(=O)N1CC=C | > 100 | > 100 | > 100 | > 100 | > 100 | > 100 | > 100 | > 100 | > 100 | > 100 | > 100 | > 100 | 95.3 | – |
| c1cc2c(c(NC3=NCCO3)c1)CCC2 | > 100 | > 100 | > 100 | > 100 | > 100 | > 100 | > 100 | > 100 | > 100 | > 100 | > 100 | > 100 | > 100 | > 100 |
| Cc1nnc2sc(NN)nn12 | > 100 | > 100 | > 100 | > 100 | > 100 | > 100 | > 100 | > 100 | > 100 | > 100 | > 100 | > 100 | > 100 | > 100 |
| COc1ccc2cc(C(=O)O)ccc2c1OC | > 100 | > 100 | > 100 | > 100 | > 100 | > 100 | > 100 | > 100 | > 100 | > 100 | > 100 | > 100 | > 100 | > 100 |
| C=C[C@@H]1C[C@]2(C(=O)OC)Cc3nc4ccccc4nc3CC(C(=O)OC)=C2O1 | > 100 | > 100 | > 100 | > 100 | > 100 | > 100 | > 100 | > 100 | > 100 | > 100 | > 100 | > 100 | > 100 | > 100 |
| Cc1ccc(S(=O)(=O)N2CCSCCN(S(=O)(=O)c3ccc(C)cc3)CCN(S(=O)(=O)c3ccc(C)cc3)CC2)cc1 | – | > 100 | > 100 | – | > 100 | > 100 | > 100 | 59.5 | > 100 | > 100 | > 100 | > 100 | > 100 | > 100 |
| CC1Oc2c(c(=O)oc3ccccc23)[C@@]1(C)CC1C[C@H](C)C(=O)O1 (stereo not given in full) | > 100 | 45.9 | 45.3 | > 100 | > 100 | > 100 | 28.4 | > 100 | > 100 | 42.4 | > 100 | > 100 | > 100 | 32.9 |
| COc1cc(C2C(C#N)=C(N)OC3=C2CCS(=O)(=O)c2ccc(C)cc23)cc(OC)c1OC (stereo not given) | > 100 | > 100 | > 100 | > 100 | > 100 | > 100 | > 100 | > 100 | > 100 | > 100 | > 100 | > 100 | > 100 | > 100 |
| Clc1cc(Cl)cc(C2ON=C(c3ccccc3)N2C23CC4CC(CC(C4)C2)C3)c1 (stereo not given) | > 10 | > 10 | > 10 | > 10 | > 10 | > 10 | > 10 | > 10 | > 10 | > 10 | > 10 | > 10 | > 10 | > 10 |
| COC(=O)[C@@H]1CN(C(C)=O)C(=O)N1C(=O)OCc1ccccc1 | > 100 | > 100 | > 100 | > 100 | > 100 | > 100 | > 100 | > 100 | > 100 | – | > 100 | > 100 | > 100 | > 100 |
| CC(C)NC(=O)OCc1c(COC(=O)NC(C)C)c(-c2cc[n+](COC(=O)C(C)(C)C)cc2)n2c1CCC2 | > 100 | > 100 | > 100 | > 100 | > 100 | > 100 | > 100 | > 100 | > 100 | > 100 | > 100 | > 100 | > 100 | > 100 |
| COc1ccc(OCc2ccc3nc(-c4ccccc4)c(Cl)nc3c2)cc1 | > 100 | > 100 | > 100 | > 100 | > 100 | > 100 | > 100 | 37.9 | > 100 | – | 81.5 | > 100 | 81.2 | 45.4 |
| CN(N)c1cc(=O)[nH]c(=O)[nH]1 | > 100 | > 100 | > 100 | > 100 | > 100 | > 100 | > 100 | > 100 | > 100 | > 100 | – | > 100 | > 100 | > 100 |
| COc1cc(S(=O)(=O)Nc2ccc(-c3csc(N)n3)cc2)ccc1Cl | – | 38.5 | 28.9 | 43.6 | 40.7 | 58.5 | 29.7 | 31.4 | 32.4 | 30 | 33.6 | 83.3 | 59.2 | 53.5 |
| O=C(c1ccccc1)c1ccc(-n2c3ccccc3c3ccc4c(c32)C(=O)C=CC4=O)cc1 | 27.5 | 40.6 | 20.8 | 31.3 | 27.2 | 30.1 | 16.3 | 26.2 | > 40.1 | 26.7 | 25.9 | 60.5 | 25.3 | – |
| CCOC(=O)c1cnc2n(c1=N)[C@H]1CCCC[C@@H]1N2 | > 100 | > 100 | > 100 | > 100 | > 100 | > 100 | > 100 | > 100 | > 100 | > 100 | > 100 | > 100 | > 100 | – |
